Results taken from ChEMBL document CHEMBL5046278, “Synthesis and Evaluation of Novel Tetrahydronaphthyridine CXCR4 Antagonists with Improved Drug-like Profiles” (J Med Chem, 2022).
pIC50: −log10 of the molar value.

How the values were obtained:
[1] = molecular target: T1, Alpha-2C adrenergic receptor (Homo sapiens, UniProt P18825); assay: Inhibition of alpha 2C adrenergic receptor (unknown origin)
T1 sequence (P18825 whole entry): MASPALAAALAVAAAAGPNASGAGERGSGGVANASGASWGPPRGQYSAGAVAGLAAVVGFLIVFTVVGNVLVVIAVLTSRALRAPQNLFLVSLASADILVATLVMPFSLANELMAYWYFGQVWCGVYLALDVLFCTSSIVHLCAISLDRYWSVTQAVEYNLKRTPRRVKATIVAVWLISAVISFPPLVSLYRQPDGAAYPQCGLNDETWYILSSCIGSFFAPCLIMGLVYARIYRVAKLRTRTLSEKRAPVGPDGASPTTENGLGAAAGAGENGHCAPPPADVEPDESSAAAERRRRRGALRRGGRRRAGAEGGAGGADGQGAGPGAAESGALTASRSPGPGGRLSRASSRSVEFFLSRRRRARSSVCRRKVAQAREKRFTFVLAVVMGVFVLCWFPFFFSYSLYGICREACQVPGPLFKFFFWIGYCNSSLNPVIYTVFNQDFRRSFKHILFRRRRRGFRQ

Homo sapiens [2] = species on record: Homo sapiens; assay: Selectivity index, ratio of IC50 for inhibition of recombinant human CYP2C8 to IC50 for antagonist activity at human CXCR4 receptor expressed in CCRF-CEM cells; type: cell-based
[3] = molecular target: T2, Alpha-2A adrenergic receptor (Homo sapiens, UniProt P08913); assay: Inhibition of alpha 2A adrenergic receptor (unknown origin)
T2 sequence (P08913 whole entry): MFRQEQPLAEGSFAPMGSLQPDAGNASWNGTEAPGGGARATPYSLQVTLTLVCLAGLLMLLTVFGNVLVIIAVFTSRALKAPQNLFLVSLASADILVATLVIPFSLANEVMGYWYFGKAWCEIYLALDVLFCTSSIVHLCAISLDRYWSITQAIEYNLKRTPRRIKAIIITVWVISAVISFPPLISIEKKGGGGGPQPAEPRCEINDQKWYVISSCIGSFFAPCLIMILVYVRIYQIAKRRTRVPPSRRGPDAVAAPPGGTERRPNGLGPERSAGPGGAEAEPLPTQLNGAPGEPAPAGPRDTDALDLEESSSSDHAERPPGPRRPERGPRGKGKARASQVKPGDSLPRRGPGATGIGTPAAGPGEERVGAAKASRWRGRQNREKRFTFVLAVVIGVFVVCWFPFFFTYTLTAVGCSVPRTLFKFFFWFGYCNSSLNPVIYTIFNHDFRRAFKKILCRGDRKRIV

[4] = Oral bioavailability in mouse at 30 mg/kg measured at 24 hrs by LC-MS/MS analysis; type: ADME, organism-based; conditions: in vivo
[5] = molecular target: C-C chemokine receptor type 4 (Homo sapiens) (UniProt P51679); assay: Inhibition of human CCR4 at 10 uM relative to control
Chain of C-C chemokine receptor type 4 (Homo sapiens) (P51679 whole entry): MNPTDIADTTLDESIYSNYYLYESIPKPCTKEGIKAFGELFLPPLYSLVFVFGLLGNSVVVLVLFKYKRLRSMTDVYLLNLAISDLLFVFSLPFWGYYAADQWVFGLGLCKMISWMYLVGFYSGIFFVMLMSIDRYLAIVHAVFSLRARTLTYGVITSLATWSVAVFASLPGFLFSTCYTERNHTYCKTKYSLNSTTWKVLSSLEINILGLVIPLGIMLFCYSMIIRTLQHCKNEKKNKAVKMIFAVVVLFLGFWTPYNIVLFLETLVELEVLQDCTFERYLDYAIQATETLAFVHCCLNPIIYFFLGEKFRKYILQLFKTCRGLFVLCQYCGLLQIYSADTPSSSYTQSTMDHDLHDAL

[6] = Oral bioavailability in mouse at 10 mg/kg measured at 24 hrs by LC-MS/MS analysis; type: ADME, organism-based; conditions: in vivo
[7] = molecular target: C-X-C chemokine receptor type 3 (Homo sapiens) (UniProt P49682); assay: Inhibition of human CXCR3 at 10 uM relative to control
Chain of C-X-C chemokine receptor type 3 (Homo sapiens) (P49682 whole entry): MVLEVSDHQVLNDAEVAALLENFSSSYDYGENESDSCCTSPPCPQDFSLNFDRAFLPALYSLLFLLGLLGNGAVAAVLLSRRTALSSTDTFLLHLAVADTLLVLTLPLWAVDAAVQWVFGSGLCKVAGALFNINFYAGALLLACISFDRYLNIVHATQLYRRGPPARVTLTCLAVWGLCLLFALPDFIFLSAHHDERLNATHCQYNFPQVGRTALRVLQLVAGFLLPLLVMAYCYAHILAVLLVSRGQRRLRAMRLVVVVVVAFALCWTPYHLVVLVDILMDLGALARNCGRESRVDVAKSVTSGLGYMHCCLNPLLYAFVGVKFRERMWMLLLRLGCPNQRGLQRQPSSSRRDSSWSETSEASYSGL

[8] = Cmax in mouse at 30 mg/kg, po measured after 8 hrs by LC-MS/MS analysis; type: ADME, organism-based; set-up: route oral, dose 30 mg/kg, time 8 hrs; conditions: in vivo
[9] = molecular target: C-X-C chemokine receptor type 2 (Homo sapiens) (UniProt P25025); assay: Inhibition of human CXCR2 at 10 uM relative to control
Chain of C-X-C chemokine receptor type 2 (Homo sapiens) (P25025 whole entry): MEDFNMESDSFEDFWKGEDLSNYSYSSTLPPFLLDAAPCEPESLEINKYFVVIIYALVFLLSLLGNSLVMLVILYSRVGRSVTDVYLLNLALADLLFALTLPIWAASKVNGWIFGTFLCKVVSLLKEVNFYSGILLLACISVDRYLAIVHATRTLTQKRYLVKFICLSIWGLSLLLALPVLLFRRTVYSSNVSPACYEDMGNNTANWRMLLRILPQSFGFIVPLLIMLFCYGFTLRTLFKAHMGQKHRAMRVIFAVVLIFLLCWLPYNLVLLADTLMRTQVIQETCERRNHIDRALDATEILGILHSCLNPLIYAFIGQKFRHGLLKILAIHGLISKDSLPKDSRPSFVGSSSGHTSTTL

[10] = Metabolic stability in human liver microsomes assessed compound remaining measured after 10 mins in presence of NADPH; type: ADME, Microsome; conditions: read-out: Stability
[11] = test system: Human immunodeficiency virus 1; assay: Antiviral activity against HIV-1 NL4-3(X4) pseudovirus infected in human TZM-bl cells assessed as reduction in viral infectivity measured after 48 hrs of postinfection by luminescence assay; type: functional, organism-based; conditions: Human immunodeficiency virus 1, NL4-3(X4)
[12] = molecular target: Neuronal acetylcholine receptor subunit alpha-7 (Homo sapiens, UniProt P36544); assay: Inhibition of alpha7 nicotinic acetylcholine receptor (unknown origin)
Chain of Neuronal acetylcholine receptor subunit alpha-7 (P36544 whole entry): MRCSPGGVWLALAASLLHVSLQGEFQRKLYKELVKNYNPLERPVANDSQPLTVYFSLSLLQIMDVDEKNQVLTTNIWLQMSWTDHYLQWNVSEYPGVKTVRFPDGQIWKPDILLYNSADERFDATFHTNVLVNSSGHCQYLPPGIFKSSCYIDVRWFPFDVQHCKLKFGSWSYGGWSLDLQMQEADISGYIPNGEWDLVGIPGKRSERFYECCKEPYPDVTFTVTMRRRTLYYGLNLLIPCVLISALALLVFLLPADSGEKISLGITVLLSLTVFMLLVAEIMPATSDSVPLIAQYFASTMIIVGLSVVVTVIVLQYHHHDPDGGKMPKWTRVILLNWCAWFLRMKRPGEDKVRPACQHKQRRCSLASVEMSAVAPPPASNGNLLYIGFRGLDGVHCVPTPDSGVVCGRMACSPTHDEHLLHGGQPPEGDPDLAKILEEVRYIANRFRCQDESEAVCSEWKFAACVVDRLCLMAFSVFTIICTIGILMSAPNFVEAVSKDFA

Homo sapiens [13] = species on record: Homo sapiens; assay: Selectivity index, ratio of IC50 for inhibition of alpha 2A adrenergic receptor (unknown origin) to IC50 for antagonist activity at human CXCR4 receptor expressed in CCRF-CEM cells; type: cell-based
[14] = Clearence in mouse at 3 mg/kg, iv measured at 24 hrs by LC-MS analysis; type: ADME, organism-based; conditions: in vivo
[15] = molecular target: Voltage-gated inwardly rectifying potassium channel KCNH2 (Homo sapiens, UniProt Q12809); assay: Inhibition of human ERG by [3H]]Astemizole binding assay; type: toxicity
Chain of Voltage-gated inwardly rectifying potassium channel KCNH2 (Q12809 whole entry): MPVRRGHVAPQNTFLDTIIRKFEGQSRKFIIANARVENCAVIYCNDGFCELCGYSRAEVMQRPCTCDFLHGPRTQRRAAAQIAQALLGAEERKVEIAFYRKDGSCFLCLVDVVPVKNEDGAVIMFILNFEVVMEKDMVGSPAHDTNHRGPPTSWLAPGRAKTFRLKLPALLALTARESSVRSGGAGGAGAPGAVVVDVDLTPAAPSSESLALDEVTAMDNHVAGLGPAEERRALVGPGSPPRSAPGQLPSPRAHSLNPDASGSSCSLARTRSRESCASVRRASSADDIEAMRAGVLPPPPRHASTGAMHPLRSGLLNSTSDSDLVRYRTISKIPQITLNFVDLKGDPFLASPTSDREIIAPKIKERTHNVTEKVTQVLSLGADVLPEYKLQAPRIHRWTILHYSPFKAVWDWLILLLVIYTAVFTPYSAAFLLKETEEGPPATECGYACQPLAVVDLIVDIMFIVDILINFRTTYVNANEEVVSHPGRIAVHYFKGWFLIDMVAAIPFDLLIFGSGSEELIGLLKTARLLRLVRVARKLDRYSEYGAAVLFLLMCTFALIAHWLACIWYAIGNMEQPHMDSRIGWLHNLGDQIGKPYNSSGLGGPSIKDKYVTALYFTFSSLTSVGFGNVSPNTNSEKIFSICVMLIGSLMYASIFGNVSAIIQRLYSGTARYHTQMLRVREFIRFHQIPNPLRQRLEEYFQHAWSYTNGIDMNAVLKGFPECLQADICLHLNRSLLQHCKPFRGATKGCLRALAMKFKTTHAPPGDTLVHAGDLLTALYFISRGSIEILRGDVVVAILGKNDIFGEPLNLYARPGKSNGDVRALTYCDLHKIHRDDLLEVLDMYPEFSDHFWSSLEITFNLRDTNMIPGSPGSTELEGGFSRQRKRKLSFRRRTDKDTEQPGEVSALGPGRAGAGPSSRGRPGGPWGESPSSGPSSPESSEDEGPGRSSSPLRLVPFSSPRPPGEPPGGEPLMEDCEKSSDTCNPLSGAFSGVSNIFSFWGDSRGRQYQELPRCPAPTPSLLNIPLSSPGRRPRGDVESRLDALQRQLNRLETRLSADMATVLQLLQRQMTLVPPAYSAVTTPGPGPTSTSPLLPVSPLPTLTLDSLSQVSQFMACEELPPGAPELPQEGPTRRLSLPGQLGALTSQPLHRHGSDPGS

[16] = molecular target: C-X-C chemokine receptor type 1 (Homo sapiens) (UniProt P25024); assay: Inhibition of human CXCR1 at 10 uM relative to control
Chain of C-X-C chemokine receptor type 1 (Homo sapiens) (P25024 whole entry): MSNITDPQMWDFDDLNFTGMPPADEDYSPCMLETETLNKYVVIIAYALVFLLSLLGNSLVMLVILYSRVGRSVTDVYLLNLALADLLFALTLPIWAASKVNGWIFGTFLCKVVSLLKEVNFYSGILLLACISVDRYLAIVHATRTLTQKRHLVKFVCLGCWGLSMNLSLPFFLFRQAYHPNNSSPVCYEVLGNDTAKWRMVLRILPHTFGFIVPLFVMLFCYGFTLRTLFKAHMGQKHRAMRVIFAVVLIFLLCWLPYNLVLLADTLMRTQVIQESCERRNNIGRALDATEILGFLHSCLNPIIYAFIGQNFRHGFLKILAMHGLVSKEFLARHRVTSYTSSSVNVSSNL

[17] = Cytotoxicity against human TZM-bl cells assessed as reduction in cell viability incubated for 4 hrs by […] assay; type: toxicity, cell-based; conditions: read-out: TC50
Cytochrome P450 2D6 = Cytochrome P450 2D6 (Homo sapiens, UniProt P10635); assay: Inhibition of recombinant human CYP2D6 using AMMC as substrate preincubated for 30 mins followed by substrate addition measured after 45 mins by fluorescence based assay; type: ADME
Chain of Cytochrome P450 2D6 (P10635 whole entry): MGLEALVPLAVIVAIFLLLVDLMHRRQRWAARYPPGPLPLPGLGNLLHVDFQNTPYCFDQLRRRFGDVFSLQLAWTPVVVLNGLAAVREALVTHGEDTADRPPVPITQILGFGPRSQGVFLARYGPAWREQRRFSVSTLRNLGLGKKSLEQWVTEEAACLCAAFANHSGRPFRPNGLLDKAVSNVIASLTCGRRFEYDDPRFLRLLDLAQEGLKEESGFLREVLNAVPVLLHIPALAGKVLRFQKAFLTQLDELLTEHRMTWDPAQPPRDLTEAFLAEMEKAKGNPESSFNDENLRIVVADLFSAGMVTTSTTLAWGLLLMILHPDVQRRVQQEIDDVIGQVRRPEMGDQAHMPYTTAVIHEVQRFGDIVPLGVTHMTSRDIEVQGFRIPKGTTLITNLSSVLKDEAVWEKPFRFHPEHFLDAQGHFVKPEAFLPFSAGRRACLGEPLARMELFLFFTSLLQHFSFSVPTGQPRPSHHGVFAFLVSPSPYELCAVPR

[18] = molecular target: T3, Muscarinic acetylcholine receptor M2 (Homo sapiens, UniProt P08172); assay: Inhibition of M2 mAChR receptor (unknown origin)
T3 sequence (P08172 whole entry): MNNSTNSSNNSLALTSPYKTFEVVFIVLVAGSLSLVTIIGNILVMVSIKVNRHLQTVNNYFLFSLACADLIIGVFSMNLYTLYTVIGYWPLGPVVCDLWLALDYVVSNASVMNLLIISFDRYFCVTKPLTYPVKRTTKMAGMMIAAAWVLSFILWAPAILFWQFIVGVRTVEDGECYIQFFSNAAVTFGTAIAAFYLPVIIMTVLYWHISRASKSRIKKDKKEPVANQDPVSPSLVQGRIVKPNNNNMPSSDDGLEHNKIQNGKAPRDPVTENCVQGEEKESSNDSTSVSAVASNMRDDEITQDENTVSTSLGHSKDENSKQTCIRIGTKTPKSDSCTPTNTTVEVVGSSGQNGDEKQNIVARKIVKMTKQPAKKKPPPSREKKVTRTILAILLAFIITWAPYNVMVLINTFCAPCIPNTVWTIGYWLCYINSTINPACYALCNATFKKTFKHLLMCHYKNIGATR

Homo sapiens [19] = species on record: Homo sapiens; assay: Selectivity index, ratio of IC50 for Inhibition of human ERG to IC50 for antagonist activity at human CXCR4 receptor expressed in CCRF-CEM cells; type: cell-based
[20] = Antagonist activity at mAChR (unknown origin) expressed in CCRF-CEM cells assessed as inhibition of calcium release by calcium flux assay; type: cell-based; conditions: Homo sapiens
[21] = molecular target: C-C chemokine receptor type 5 (Homo sapiens) (UniProt P51681); assay: Inhibition of human CCR5 at 10 uM relative to control
Chain of C-C chemokine receptor type 5 (Homo sapiens) (P51681 whole entry, looked up): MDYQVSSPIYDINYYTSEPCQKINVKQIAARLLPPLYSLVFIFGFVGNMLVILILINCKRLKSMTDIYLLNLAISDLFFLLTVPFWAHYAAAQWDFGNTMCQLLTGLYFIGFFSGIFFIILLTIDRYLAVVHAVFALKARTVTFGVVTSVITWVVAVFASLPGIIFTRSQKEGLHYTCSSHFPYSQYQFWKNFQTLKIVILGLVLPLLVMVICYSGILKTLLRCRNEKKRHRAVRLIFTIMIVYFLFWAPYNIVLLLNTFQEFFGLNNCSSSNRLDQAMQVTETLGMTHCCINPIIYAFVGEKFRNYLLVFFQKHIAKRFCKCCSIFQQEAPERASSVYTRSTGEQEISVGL

Homo sapiens [22] = species on record: Homo sapiens; assay: Selectivity index, ratio of IC50 for inhibition of recombinant human CYP1A2 to IC50 for antagonist activity at human CXCR4 receptor expressed in CCRF-CEM cells; type: cell-based
D(2) dopamine receptor = D(2) dopamine receptor (Homo sapiens, UniProt P14416); assay: Inhibition of dopamine D2 receptor (unknown origin)
Chain of D(2) dopamine receptor (P14416 whole entry): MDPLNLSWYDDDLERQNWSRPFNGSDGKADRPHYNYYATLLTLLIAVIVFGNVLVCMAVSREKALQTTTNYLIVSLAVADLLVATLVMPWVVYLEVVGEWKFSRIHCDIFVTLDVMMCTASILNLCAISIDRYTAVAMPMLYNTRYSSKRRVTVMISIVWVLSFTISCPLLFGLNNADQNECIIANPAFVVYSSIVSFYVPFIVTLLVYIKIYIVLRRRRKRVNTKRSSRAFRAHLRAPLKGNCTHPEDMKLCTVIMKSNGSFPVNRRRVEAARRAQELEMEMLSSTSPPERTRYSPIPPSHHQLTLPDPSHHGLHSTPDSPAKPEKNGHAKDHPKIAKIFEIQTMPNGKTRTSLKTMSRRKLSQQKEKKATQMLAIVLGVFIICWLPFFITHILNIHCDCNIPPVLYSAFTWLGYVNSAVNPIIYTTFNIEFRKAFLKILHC

[23] = Cmax in mouse at 3 mg/kg, iv measured after 8 hrs by LC-MS/MS analysis; type: ADME, organism-based; set-up: route intravenous, time 8 hrs, dose 3 mg/kg; conditions: in vivo

CN(CCCCN(C[C@H]1Cc2ncccc2CN1)[C@H]1CCCc2cccnc21)C1CCC(F)(F)CC1
pIC50 [1]: < 4.52
Selectivity Index (Homo sapiens [2]): > 710
pIC50 [3]: 6.09
bioavailability [4]: 27.1%
inhibition [5]: < 5%
bioavailability [6]: 21.5%
inhibition [7]: < 5%
Cmax [8]: 169 ng/mL
inhibition [9]: < 5%
remaining at 10 min [10]: 61%
pIC50 [11]: 8.15
pIC50 [12]: < 4.52
Selectivity Index (Homo sapiens [13]): > 1000
clearance [14]: 188 mL/min/kg
pIC50 [15]: 4.77
inhibition [16]: < 5%
CC50 at 4 h [17]: > 10 µM
pIC50 (Cytochrome P450 2D6): 4.89
pIC50 [18]: < 4.52
Selectivity Index (Homo sapiens [19]): 710
pIC50 [20]: < 4.77
inhibition [21]: < 5%
Selectivity Index (Homo sapiens [22]): > 710
pIC50 (D(2) dopamine receptor): < 4.52
Cmax [23]: 116 ng/mL
